Laboratory results taken from patent US8624034B2, “Fluoro-pyridinone derivatives useful as antibacterial agents” (Pfizer Inc., priority 2011, dated 2014).
≈ marks a conversion by molar mass, not a printed value.

Columns and labels:
[1] = biological target: T1, Pseudomonas aeruginosa LpxC enzyme (Pseudomonas aeruginosa, UniProt P47205); experiment: IC50 assay, LpxC enzyme from P. aeruginosa (PA LpxC enzyme IC50); format: biochemical; conditions: Table 2; LpxC enzyme 0.1 nM, 25° C., 1 hour; read-out: PA:IC50
T1 construct: made in house; host or cells: E. coli
T1 sequence (P47205 1-303): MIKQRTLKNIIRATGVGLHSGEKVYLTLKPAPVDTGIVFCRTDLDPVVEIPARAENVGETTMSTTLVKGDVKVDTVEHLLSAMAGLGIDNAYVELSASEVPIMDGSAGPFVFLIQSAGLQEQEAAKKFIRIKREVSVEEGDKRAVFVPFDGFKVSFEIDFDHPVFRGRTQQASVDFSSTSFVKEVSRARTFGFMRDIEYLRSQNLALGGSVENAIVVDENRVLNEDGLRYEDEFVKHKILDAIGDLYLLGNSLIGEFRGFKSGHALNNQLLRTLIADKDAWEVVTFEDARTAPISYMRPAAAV
Outline: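 IC50 values came from percent conversion, referenced to a no-enzyme control. Conversion was read by RapidFire HTMS mass spectrometry after HCl quench of the 1 h enzyme reaction.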

[2] = test system: Escherichia coli EC-1: VOGEL, mouse virulent; experiment: MIC determination, EC-1; format: cell-based; conditions: Escherichia coli, read-out: EC-1 (MIC), Table 2, lower of duplicate values
Outline: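 Duplicate runs differing by more than 2-fold were repeated, and otherwise the lower MIC was kept. The test organism was E. coli EC-1 (VOGEL, mouse virulent), incubated overnight across 2-fold compound dilutions following CLSI guidelines. The MIC was read visually as the lowest concentration inhibiting growth relative to drug-free control.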

[3] = test system: Pseudomonas aeruginosa UI-18: wild-type (PA-7); experiment: MIC determination, PA-7; format: cell-based; conditions: Table 2, lower of duplicate values
Experimental: The in vitro antibacterial activity of compounds described in the Examples was evaluated by minimum inhibitory concentration (MIC) testing according to Clinical and Laboratory Standards Institute (CLSI). See: Clinical and Laboratory Standards Institute. Methods for Dilution Antimicrobial Susceptibility Tests for Bacteria that Grow Aerobically; Approved Standard-Eighth Edition. CLSI document M7-A8 [ISBN 1-56238-689-1]. Clinical and Laboratory Standards Institute, 940 West Valley Road, Suite 1400, Wayne, Pa. 19087-1898 USA, 2006; also Clinical and Laboratory Standards Institute. Performance Standards for Antimicrobial Susceptibility Testing; Twentieth Informational Supplement. CLSI document M100-S20 [ISBN 1-56238-716-2]. Clinical and Laboratory Standards Institute.
The MIC determination is a standard laboratory method for evaluating the antibacterial activity of a compound. The MIC represents the lowest drug concentration that inhibits visible growth of bacteria following overnight incubation. […] Typically, the drug concentration range is broken down into 2-fold increments (e.g. 0.06 μg/mL, 0.12 μg/mL. 0.25 μg/mL, 0.50 μg/mL, 1.0 μg/mL, etc.) and the various drug concentrations are all individually incubated overnight with approximately the same number of bacteria. The MIC is then determined by visually inspecting the drug effect at each concentration, and identifying the lowest drug concentration that has inhibited bacterial growth as compared to the drug free control. Typically, bacteria continue to grow at drug concentrations lower than the MIC and don't grow at concentrations at and above the MIC.
The MIC values described in Table 2 and 3 below were derived from assays wherein each test compound was evaluated in duplicate. In cases where the duplicate values varied by 0-2-fold, the lower of the two values was reported below. Generally speaking, if the duplicate values varied by more than 2-fold, the assay was considered non-valid and was repeated until the variation between duplicate runs was ≦2-fold. In line with the CLSI guidelines referred to above, both control organisms and reference compounds were utilized in each MIC assay to provide proper quality control. MIC values generated with these control organisms and reference compounds were required to fall within a defined range for the assay to be considered valid and be included herein. Those skilled in the art will recognize that MIC values can and do vary from experiment to experiment. Generally speaking, it should be recognized that MIC values often vary +/−2-fold from experiment to experiment. While a single MIC is reported for each compound and each microorganism, the reader should not conclude that each compound was only tested once. Several of the compounds were subjected to multiple tests. The data reported in Tables 2 and 3 is reflective of the compounds relative activity and different MICs may have been generated on these occasions in line with the guidelines described above.
The following bacterial strains were used in these MIC determinations:
1) Pseudomonas aeruginosa UI-18: Wild-type, labeled as PA-7 in Tables 2 and 3;

[4] = test system: Acinetobacter baumannii/haemolyticus, multidrug-resistant clinical isolate (AB-3167); experiment: MIC determination, AB-3167; format: cell-based; conditions: Table 2, lower of duplicate values
Outline: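 MIC read visually after overnight growth across 2-fold concentration steps in the CLSI dilution method against the multidrug-resistant clinical isolate. Duplicate determinations, lower value reported when within 2-fold, otherwise repeated; every run checked with control organisms and reference drugs.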

| SMILES | IC50 [1] [pM] | MIC [2] [µg/mL] | MIC [3] [µg/mL] | MIC [4] [µg/mL] |
| --- | --- | --- | --- | --- |
| COc1ccc(-c2cc(=O)n(CC[C@](C)(C(=O)NO)S(C)(=O)=O)cc2F)cc1C [Example 34, (2R)-4-[5-Fluoro-4-(4-methoxy-3-methylphenyl)-2-oxopyridin-1(2H)-yl]-N-hydroxy-2-methyl-2-(methylsulfonyl)butanamide] | 834 | 0.25 (≈ 0.586 µM) | 0.5 (≈ 1.17 µM) | > 64 |
| C[C@@](CCn1cc(F)c(-c2ccc(Cl)cc2F)cc1=O)(C(=O)NO)S(C)(=O)=O [Example 16, (2R)-4-[4-(4-Chloro-2-fluorophenyl)-5-fluoro-2-oxopyridin-1(2H)-yl]-N-hydroxy-2-methyl-2-(methylsulfonyl)butanamide] | 336 | 0.25 (≈ 0.575 µM) | 0.5 (≈ 1.15 µM) | > 64 |
| C[C@@](CCn1cc(F)c(-c2ccc3nccnc3c2)cc1=O)(C(=O)NO)S(C)(=O)=O [Example 24, (2R)-4-(5-Fluoro-2-oxo-4-quinoxalin-6-ylpyridin-1(2H)-yl)-N-hydroxy-2-methyl-2-(methylsulfonyl)butanamide] | 1230 | 4 (≈ 9.21 µM) | 4 (≈ 9.21 µM) | > 64 |
| C[C@@](CCn1cc(F)c(-c2ccc3c(c2)CCO3)cc1=O)(C(=O)NO)S(C)(=O)=O [Example 5, (2R)-4-[4-(2,3-Dihydro-1-benzofuran-5-yl)-5-fluoro-2-oxopyridin-1(2H)-yl]-N-hydroxy-2-methyl-2-(methylsulfonyl)butanamide] | 822 | 1 (≈ 2.36 µM) | 1 (≈ 2.36 µM) | > 64 |
| Cc1ccc(-c2cc(=O)n(CC[C@](C)(C(=O)NO)S(C)(=O)=O)cc2F)cc1 [Example 29, (2R)-4-[5-Fluoro-4-(4-methylphenyl)-2-oxopyridin-1(2H)-yl]-N-hydroxy-2-methyl-2-(methylsulfonyl)butanamide] | 514 | 0.5 (≈ 1.26 µM) | 0.5 (≈ 1.26 µM) | > 64 |
| COc1ccc(-c2cc(=O)n(CC[C@](C)(C(=O)NO)S(C)(=O)=O)cc2F)cc1 [Example 28, (2R)-4-[5-Fluoro-4-(4-methoxyphenyl)-2-oxopyridin-1(2H)-yl]-N-hydroxy-2-methyl-2-(methylsulfonyl)butanamide] | 564 | 1 (≈ 2.42 µM) | 0.5 (≈ 1.21 µM) | > 64 |
| C[C@@](CCn1cc(F)c(-c2ccc(S(F)(F)(F)(F)F)cc2)cc1=O)(C(=O)NO)S(C)(=O)=O [Example 12, (2R)-4-{5-Fluoro-2-oxo-4-[4-(pentafluoro-6λ-sulfanyl)phenyl]pyridin-1(2H)-yl}-N-hydroxy-2-methyl-2-(methylsulfonyl)butanamide] | 1140 | 4 (≈ 7.87 µM) | 4 (≈ 7.87 µM) | > 64 |
| C[C@@](CCn1cc(F)c(-c2ccc(OC3CC3)cc2)cc1=O)(C(=O)NO)S(C)(=O)=O [Example 46, (2R)-4-{4-[4-(Cyclopropyloxy)phenyl]-5-fluoro-2-oxopyridin-1(2H)-yl}-N-hydroxy-2-methyl-2-(methylsulfonyl)butanamide] | 229 | 0.125 (≈ 0.285 µM) | 0.5 (≈ 1.14 µM) | > 64 |
| C[C@@](CCn1cc(F)c(-c2ccc(-c3ncco3)cc2)cc1=O)(C(=O)NO)S(C)(=O)=O [Example 42, (2R)-4-[5-Fluoro-4-[4-(1,3-oxazol-2-yl)phenyl]-2-oxopyridin-1(2H)-yl]-N-hydroxy-2-methyl-2-(methylsulfonyl)butanamide] | 328 | 0.25 (≈ 0.556 µM) | 1 (≈ 2.22 µM) | > 64 |
| CCCc1ccc(-c2cc(=O)n(CC[C@](C)(C(=O)NO)S(C)(=O)=O)cc2F)cc1 [Example 11, (2R)-4-[5-Fluoro-2-oxo-4-(4-propylphenyl)pyridin-1(2H)-yl]-N-hydroxy-2-methyl-2-(methylsulfonyl)butanamide] | 482 | 0.125 (≈ 0.294 µM) | 0.5 (≈ 1.18 µM) | > 64 |
| [2H]C([2H])([2H])Oc1ccc(-c2cc(=O)n(CC[C@](C)(C(=O)NO)S(C)(=O)=O)cc2F)cc1 [Example 44, (2R)-4-[5-Fluoro-4-(4-trideuteromethoxyphenyl)-2-oxopyridin-1(2H)-yl]-N-hydroxy-2-methyl-2-(methylsulfonyl)butanamide] | 664 | 0.25 (≈ 0.602 µM) | 0.25 (≈ 0.602 µM) | > 64 |
| C[C@@](CCn1cc(F)c(-c2cccc(Oc3nccs3)c2)cc1=O)(C(=O)NO)S(C)(=O)=O [Example 49, (2R)-4-{5-Fluoro-2-oxo-4-[3-(1,3-thiazol-2-yloxy)phenyl]pyridin-1(2H)-yl}-N-hydroxy-2-methyl-2-(methylsulfonyl)butanamide] | 758 | 0.25 (≈ 0.519 µM) | 2 (≈ 4.15 µM) | > 64 |
| C[C@@](CCn1cc(F)c(-c2ccc(F)c(F)c2)cc1=O)(C(=O)NO)S(C)(=O)=O [Example 6, (2R)-4-[4-(3,4-Difluorophenyl)-5-fluoro-2-oxopyridin-1(2H)-yl]-N-hydroxy-2-methyl-2-(methylsulfonyl)butanamide] | 833 | 1 (≈ 2.39 µM) | 0.5 (≈ 1.2 µM) | > 64 |
| C[C@@](CCn1cc(F)c(-c2ccc(OC(F)F)c(F)c2)cc1=O)(C(=O)NO)S(C)(=O)=O [Example 35, (2R)-4-{4-[4-(difluoromethoxy)-3-fluorophenyl]-5-fluoro-2-oxopyridin-1(2H)-yl}-N-hydroxy-2-methyl-2-(methylsulfonyl)butanamide] | 589 | 1 (≈ 2.14 µM) | 0.5 (≈ 1.07 µM) | > 64 |
| C[C@@](CCn1cc(F)c(-c2ccc(OC(F)(F)F)cc2)cc1=O)(C(=O)NO)S(C)(=O)=O [Example 30, (2R)-4-{5-Fluoro-2-oxo-4-[4-(trifluoromethoxy)phenyl]pyridin-1(2H)-yl}-N-hydroxy-2-methyl-2-(methylsulfonyl)butanamide] | 106 | 0.25 (≈ 0.536 µM) | 0.5 (≈ 1.07 µM) | > 64 |
| [2H]C([2H])([2H])c1ccc(-c2cc(=O)n(CC[C@](C)(C(=O)NO)S(C)(=O)=O)cc2F)cc1 [Example 43, (2R)-4-[5-Fluoro-4-(4-trideuteromethylphenyl)-2-oxopyridin-1(2H)-yl]-N-hydroxy-2-methyl-2-(methylsulfonyl)butanamide] | 653 | 0.25 (≈ 0.626 µM) | 0.5 (≈ 1.25 µM) | > 64 |
| COc1cnn(-c2ccc(-c3cc(=O)n(CC[C@](C)(C(=O)NO)S(C)(=O)=O)cc3F)cc2)n1 [Example 22, (2R)-4-{5-Fluoro-4-[4-(4-methoxy-2H-1,2,3-triazol-2-yl)phenyl]-2-oxopyridin-1(2H)-yl}-N-hydroxy-2-methyl-2-(methylsulfonyl)butanamide] | 181 | ≤ 0.06 | 0.5 (≈ 1.04 µM) | > 64 |
| C[C@@](CCn1cc(F)c(-c2ccc(OC3COC3)cc2)cc1=O)(C(=O)NO)S(C)(=O)=O [Example 15, (2R)-4-{5-fluoro-4-[4-(oxetan-3-yloxy)phenyl]-2-oxopyridin-1(2H)-yl}-N-hydroxy-2-methyl-2-(methylsulfonyl)butanamide] | 2050 | 16 (≈ 35.2 µM) | 16 (≈ 35.2 µM) | > 64 |
